These are literature values, as cited in publication PMC8342870 (International Journal of Biological Macromolecules, 2021).

The series concerns the target SARS-CoV-2 PLpro (Severe acute respiratory syndrome coronavirus 2, UniProt P0DTD1). Conditions: previous work ref 29.

Turning to `CN1C[C@H](C(=O)N[C@]2(C)O[C@@]3(O)[C@@H]4CCCN4C(=O)[C@H](Cc4ccccc4)N3C2=O)C=C2c3cccc4[nH]cc(c34)C[C@H]21` [ergotamine], the “reported rigid docking score” value was -9.2 kcal/mol.
